# Laboratory results as given in US20260226092A1, “COCRYSTALS OF CORTEXOLONE 17-PROPIONATE AND METHODS FOR THEIR PREPARATION” (Farmabios S.p.A., priority 2023, published 2026).
# Where two headings read alike, the source gives them in different places.
# What was measured:
# [1] = Wettability analysis (contact angle, ultrapure water); format: physicochemical; settings: room temperature
# Method: Wettability analysis has been carried out by a contact angle meter (Kyowa Interface Science, made in Japan, model: DMe-211Plus) with FAMAS software for data processing.
# The contact angle of cocrystals (Form J and G) and Form III (reference) was evaluated at room temperature using ultrapure water (by MilliQ system). Cocrystals (Form J and G) and Form III were previously grounded with a mortar and pestle to limit the effect of particle sizes. Then, approximately 27 mg of each sample were collected on a glass substrate limited to a Teflon O-ring (6.0 mm diameter) and gently leveled by a spatula. The contact time between the drop and sample was set at 9 s and the aqueous falling volume was 2.0 μl.
# [2] = Kinetic solubility study in aqueous buffers (HPLC of mother liquors); format: physicochemical; settings: for solubility at 30 min: aqueous buffer, thermodynamic from solid, read-out: highest solubility; for Conc 1st duplicate / Conc 2nd duplicate / Conc Average: room temperature
# Method: Each sample was analyzed in duplicate. Cocrystals form J and G as well as the crystalline form III were previously grounded with mortar and pestle to reduce the particle size effects. […] At scheduled timing (0.5 h, 1 h, 3 h, 5 h, 24 h), aliquots of approximately 3 ml were withdrawn and filtered. Mother liquors were analyzed in triplicate by HPLC, and their pH values checked by pH me[…]/conductometer, Methron).
smiles,measurement,setting,value
"CCC(=O)O[C@]1(C(=O)CO)CC[C@H]2[C@@H]3CCC4=CC(=O)CC[C@]4(C)[C@H]3CC[C@@]21C [Form III, cortexolone 17α-propionate]",Wettability character (hydrophilic: contact angle <90 degrees; hydrophobic: >90 degrees),[1],hydrophilic
same,Contact angle Sample 1,"[1]; 2.0 μl drop, contact time 9 s",76.8 degrees
same,Contact angle Sample 2,"[1]; 2.0 μl drop, contact time 9 s",75.0 degrees
same,Contact angle Sample 3,"[1]; 2.0 μl drop, contact time 9 s",81.2 degrees
same,Contact angle Average,[1]; average of samples 1-3,77.67 degrees
same,solubility at 30 min,"[2]; acetate buffer, pH 5.1, room temperature, maximum over 0.5-24 h (Form J and G after 1 h, Form III after 30 min)",18.07 ± 0.06 µg/mL
same,dissolution (in words),"[2]; pH 5.1, room temperature",faster than the one at pH 6.0
same,Conc 1st duplicate,"[2]; pH 5.1 buffer, 30 min",18070 ng/mL
same,Conc 2nd duplicate,"[2]; pH 5.1 buffer, 30 min",18120 ng/mL
same,Conc Average,"[2]; pH 5.1 buffer, 30 min",18070 ng/mL
same,Conc 1st duplicate,"[2]; pH 5.1 buffer, 1 h",10020 ng/mL
same,Conc 2nd duplicate,"[2]; pH 5.1 buffer, 1 h",10000 ng/mL
same,Conc Average,"[2]; pH 5.1 buffer, 1 h",10010 ng/mL
same,Conc 1st duplicate,"[2]; pH 5.1 buffer, 3 h",16960 ng/mL
same,Conc 2nd duplicate,"[2]; pH 5.1 buffer, 3 h",16820 ng/mL
same,Conc Average,"[2]; pH 5.1 buffer, 3 h",16890 ng/mL
same,Conc 1st duplicate,"[2]; pH 5.1 buffer, 5 h",14680 ng/mL
same,Conc 2nd duplicate,"[2]; pH 5.1 buffer, 5 h",15020 ng/mL
same,Conc Average,"[2]; pH 5.1 buffer, 5 h",14770 ng/mL
same,Conc 1st duplicate,"[2]; pH 5.1 buffer, 24 h",2590 ng/mL
same,Conc 2nd duplicate,"[2]; pH 5.1 buffer, 24 h",2600 ng/mL
same,Conc Average,"[2]; pH 5.1 buffer, 24 h",2600 ng/mL
same,Conc 1st duplicate,"[2]; pH 6.0 buffer, 30 min",4380 ng/mL
same,Conc 2nd duplicate,"[2]; pH 6.0 buffer, 30 min",4370 ng/mL
same,Conc Average,"[2]; pH 6.0 buffer, 30 min",4380 ng/mL
same,Conc 1st duplicate,"[2]; pH 6.0 buffer, 1 h",3580 ng/mL
same,Conc 2nd duplicate,"[2]; pH 6.0 buffer, 1 h",3560 ng/mL
same,Conc Average,"[2]; pH 6.0 buffer, 1 h",3570 ng/mL
same,Conc 1st duplicate,"[2]; pH 6.0 buffer, 3 h",11150 ng/mL
same,Conc 2nd duplicate,"[2]; pH 6.0 buffer, 3 h",10970 ng/mL
same,Conc Average,"[2]; pH 6.0 buffer, 3 h",11060 ng/mL
same,Conc 1st duplicate,"[2]; pH 6.0 buffer, 5 h",1920 ng/mL
same,Conc 2nd duplicate,"[2]; pH 6.0 buffer, 5 h",1920 ng/mL
same,Conc Average,"[2]; pH 6.0 buffer, 5 h",1920 ng/mL
same,Conc 1st duplicate,"[2]; pH 6.0 buffer, 24 h",4020 ng/mL
same,Conc 2nd duplicate,"[2]; pH 6.0 buffer, 24 h",4030 ng/mL
same,Conc Average,"[2]; pH 6.0 buffer, 24 h",4020 ng/mL
same,solubility at 30 min,"[2]; phosphate buffer, pH 6.0, room temperature, maximum over 0.5-24 h (Form J and Form III 30 min, Form G after 1 h)",15.97 ± 0.04 µg/mL
